The values that follow come from PMC12057359, “Inhibitory effect of copper chelators on the budding in Candida albicans” (Antimicrobial Agents and Chemotherapy, 2025).

Data set [1] deals with C. albicans JCM1542. Description: iHOPE antimicrobial microdilution assay (turbidity OD600). Format: cell-based, Candida albicans. As to conditions: for IC50: read-out: IC50 against C. albicans JCM1542. A general note: In broth dilution the organism is exposed to a series of concentrations in liquid medium.
Data set [2] has as its system C. glabrata JCM3761. The description is as above. The conditions noted are these: Nakaseomyces glabratus, read-out: IC50 against C. glabrata JCM3761. It is filed as cell-based, Candida glabrata.
Data set [3] has as its system C. tropicalis JCM1541. Described as above. It is filed as cell-based. As to conditions: Candida tropicalis, read-out: IC50 against C. tropicalis JCM1541.
For data set [4], the system named is C. auris Ci6684. Described as above. Format: cell-based, Candida auris. As to conditions: Candidozyma auris, read-out: IC50 against C. auris Ci6684.
Data set [5] deals with C. auris VPCI673. The data set is described as above. Format: cell-based, Candida auris. As to conditions: Candidozyma auris, read-out: IC50 against C. auris VPCI673.
The test system of data set [6] is A. fumigatus Af293. Description: iHOPE antimicrobial microdilution assay. It is filed as cell-based, Aspergillus fumigatus.
Data set [7] relates to P. oryzae Kita-1. Description: microbe, parasite or virus in culture. Format: cell-based, Pyricularia oryzae.
The test system of data set [8] is S. aureus 209P. Description: iHOPE antimicrobial microdilution assay. As to conditions: read-out: IC50 against S. aureus 209P. It is filed as cell-based, Staphylococcus aureus.
The test system of data set [9] is E. coli HO-141. Description: iHOPE antimicrobial microdilution assay. It is filed as cell-based, Escherichia coli.
Data set [10] in a line: iHOPE in vitro cytotoxicity assessment (Cell Count Reagent SF). It is filed as cell-based, human. As to conditions: human.
Method: (§5) The method for in vitro cytotoxicity assessment using Cell Count Reagent SF (Nacalai Tesque) has been described previously ([15]). […] Test compounds were added to the culture medium, and then the plates were incubated at 28°C for 24 h.
The subject of data set [11] is HL-60 RCB0041. The data set is described as above. It is filed as cell-based, human.
Method: as §5
For data set [12], the system named is C. albicans JCM1542. Format: cell-based, Candida albicans.
Data set [13] concerns C. glabrata JCM3761. Description: Intracellular ATP measurement (BacTiter-Glo). As to conditions: C. glabrata JCM3761, 6 h, dose range 0.010–0.3 µM. Format: cell-based, Candida glabrata. As to the method:
(§1) Intracellular ATP measurement
(§2) Intracellular ATP levels were examined using the protocol outlined in a previous study (27). C. glabrata JCM3761 was precultured overnight in YPD medium [1% yeast extract (Thermo Fisher Scientific), 2% peptone (NIHON PHARMACEUTICAL, Osaka, Japan), and 2% D-glucose]. A 200-µL inoculum suspension containing 0.1% of a 0.5 McFarland standard suspension was prepared and seeded into a 96-well plate. […] The luminescence was recorded using a Varioskan LUX Multimode Microplate Reader.
(§3) Reactive oxygen species (ROS) measurement
(§4) ROS levels were examined using the method described in a previous paper (27). The overnight preculture of C. albicans JCM1542 was washed and resuspended in 5 mL of PBS buffer. 2’,7’- dichlorodihydrofluorescein diacetate (DCFH-DA; Cayman Chemical, MI, US) was added at a concentration of 50 µM. After incubation at 28 °C for 30 min, the fungi were washed three times with PBS buffer to remove the residual extracellular dye and seeded at a density of 1×10^6 cells/well in 50 µL of PBS, followed by the sample addition. After 60 min of incubation, the fluorescence intensity (excitation wavelength/emission wavelength = 485/535 nm) was measured using Varioskan LUX Multimode Microplate Reader.

Data set [14] relates to C. albicans JCM1542. Description: Reactive oxygen species (ROS) measurement (DCFH-DA). It is filed as cell-based, Candida albicans. The conditions noted are these: 60 min, dose range 0.010–0.3 µM. Here is the method:
as §1, §2, §3, §4

The subject of data set [15] is C. albicans IFO1601. Also noted: method as in earlier work. The conditions noted are these: cited from earlier work.
[16] abbreviates: Pyricularia oryzae, KITA1, read-out: IC50 against P. oryzae Kita-1.

Structures are written as SMILES. Like-named read-outs stand apart in the source and are kept apart here. Some results are limits rather than exact numbers.

As a reminder, the IC50 is the midpoint of a concentration-inhibition curve. Take `[C-]#[N+][C@H](C)CC(=O)NC[C@@H]1CC[C@H](NC(=O)C[C@@H](C)[N+]#[C-])C(O)O1` (stereo partly shown) [SF2768]: the “effect of excessive amounts of other metal ions (iron, zinc, manganese, magnesium) on the activity” value in data set [1] (0.03 µM SF2768, metal chlorides, 24 h) is “did not affect the activity”. Also, the IC50 was 10 nM in data set [1] (Candida albicans, JCM1542, 24 h); 5.4 nM in data set [2] (JCM3761, 24 h); 13 nM in data set [3] (JCM1541, 24 h); 20 nM in [4] (CI6684, 24 h); 49 nM in data set [5] (VPCI673, 24 h); 120 nM in data set [6] (Aspergillus fumigatus, AF293, read-out: IC50 against A. fumigatus Af293). Also, the IC50 in [7] (setting [16]) was over 30000 nM; in data set [8] (Staphylococcus aureus, 209P) it was 500 nM; in [9] (Escherichia coli, HO141, read-out: IC50 against E. coli HO-141), over 30000 nM; in [10] (SD in parentheses, n = 3, read-out: IC50 against HL-60 RCB0041 (cytotoxicity)), over 30000 nM. The selectivity index in [1] (HL-60 cytotoxicity versus C. albicans IC50) is on record as > 3,000. For the same compound, the “cytotoxicity to HL-60 cells (in words)” value in data set [11] (up to / at 30 µM) is on record as “without any cytotoxicity”. Further, the “effect on farnesol-induced yeast growth of C. albicans” value in data set [12] is on record as “clearly inhibited this effect”. Also, the “morphological change induced in C. albicans” value in data set [12] was “few branching or lateral yeasts were observed, and only minimal hyphal growth was observed”. Besides, the “concentration at which the hyphal form of C. albicans was predominant” value in data set [12] (C. albicans JCM1542) is at least 0.030 µM. Besides, the “intracellular level of ATP” value in [13] is reported as “did not alter the amount”. Moreover, the “intracellular level of reactive oxygen species (ROS)” value in data set [14] is recorded as “did not alter the amount”. In addition, the “zone of inhibition against C. albicans IFO1601” value in data set [15] is on record as “faint zone of inhibition”.
For `[Cl][Cu][Cl]` [Cu^2+, copper chloride (II)], the IC50 in data set [1] (MOPS-RPMI medium, 28°C, 24 h, OD600, standard deviation in parentheses, n = 3) was over 30000 nM; in [6] (SD in parentheses, n = 3, read-out: IC50 against A. fumigatus Af293) it was over 30000 nM; in data set [7] (SD in parentheses, n = 3, read-out: IC50 against P. oryzae Kita-1), over 30000 nM; in data set [8] (SD in parentheses, n = 3), over 30000 nM; in data set [9] (SD in parentheses, n = 3, read-out: IC50 against E. coli HO-141), over 30000 nM; in data set [11], over 30000 nM. In addition, the “concentration leading to earlier budding of C. albicans” value in data set [12] is at least 1 µM.
For `C[C@@H]1[C@H](O)[C@@H](C)/C=C/C=C/C=C/C=C/C=C/C=C/C=C/[C@H](O[C@@H]2O[C@H](C)[C@@H](O)[C@H](N)[C@@H]2O)C[C@@H]2O[C@](O)(C[C@@H](O)C[C@@H](O)[C@H](O)CC[C@@H](O)C[C@@H](O)CC(=O)O[C@H]1C)C[C@H](O)[C@H]2C(=O)O` [Amphotericin B, amphotericin B], the IC50 in [1] (Candida albicans, JCM1542, MOPS-RPMI medium, 28°C, 24 h, OD600, standard deviation in parentheses, n = 3) was 39 nM; in data set [2] (JCM3761, MOPS-RPMI medium, 24 h, SD in parentheses, n = 3), 63 nM; in data set [3] (JCM1541, MOPS-RPMI medium, 24 h, SD in parentheses, n = 3) it was 46 nM; in [4] (CI6684, MOPS-RPMI medium, 24 h, SD in parentheses, n = 3), 410 nM; in data set [5] (VPCI673, MOPS-RPMI medium, 24 h, SD in parentheses, n = 3), 440 nM; in [6] (Aspergillus fumigatus, AF293, SD in parentheses, n = 3, read-out: IC50 against A. fumigatus Af293), 210 nM. Further, the IC50 is 160 nM in [7] (setting [16]); over 30000 nM in data set [8] (Staphylococcus aureus, 209P, SD in parentheses, n = 3); over 30000 nM in [9] (Escherichia coli, HO141, SD in parentheses, n = 3, read-out: IC50 against E. coli HO-141); 17000 nM in data set [10]. In data set [12], the “morphological change induced in C. albicans” value is given as “yeast-rich morphology”.
